# Like-named read-outs stand apart in the source and are kept apart here.
# Tests used:
# [1] = Example II: patient with narrowing of right common carotid artery, balloon angiography; assay type: in vivo, human; conditions: idazoxan 50 or 75 mg/day two weeks before and 3 months after balloon angiography; UK 14,304 125, cirazoline 60, naphazoline 125, agmatine 900 mg/day
# Description: A person presents with a history of intermittent brief episodes of transient monocular blindness in the right eye associated with clumsiness and weakness of the left arm and leg. Angiography indicates substantial narrowing of the right common carotid artery. They are with treated with idazoxan at a dosage of 50 or 75 mg/day for two weeks preceding balloon angiography and for 3 months thereafter.
# [2] = Example IV: patient with fibromuscular dysplasia of the renal artery, angioplasty; assay type: in vivo, human
# [3] = test system: rat aortic smooth muscle cells; test: antagonism of the antiproliferative effect in serum-stimulated smooth muscle cells; assay type: cell-based; conditions: Rattus norvegicus; in presence of tolazoline 100 μM; read-out: IC50 of idazoxan in presence of tolazoline
# Description: Inhibition of serum-stimulated proliferation of rat aortic smooth muscle cells is determined as follows: The antiproliferative effect of potential drug is determined by measuring the incorporation of ^3 H-thymidine into cellular DNA. Exposure of quiescent vascular smooth muscle cell to serum, which contains many growth factors, results in a large increase in cellular proliferation as measured by ^3 H-thymidine incorported into DNA. The inhibitory effect of potential drug on serum-stimulated proliferation is tested by adding a drug before the addition of serum and determining if the serum-stimulated proliferation is reduced. […] In that event, antagonizing of the antiproliferative effect of idazoxan is determined by adding antagonist before the addition of idazoxan to serum-stimulated vascular smooth muscle cells.
# After 48 hours, the cells were starved in 0.5% FCS for another 48 hours to decrease proliferation and induce quiescence. The medium was replaced by serum-free medium 24 hours prior to addition of drug (drugs are described below) and 10% fetal calf serum or only 10% fetal calf serum in the case of the control. The cells were then incubated for 24 hours and ^3 H-thymidine (1 μCi/well) was added at hour 20. At the end of the 24 hour period, the medium was aspirated and the cells were washed three times with phosphate-buffered saline and twice with ice-cold trichloroacetic acid. Fixed cells were then solubilized in 0.2M NaOH and sonicated. A 100 μl aliquot was used for scintillation counting.
# To test this, the effect of tolazoline (100 μM) on the concentration/response curve was determined.
# [4] = Example I: patient with intermittent claudication, iliac artery plaques; assay type: in vivo, human; conditions: over 30 days oral; idazoxan 50 and 75 mg/day, UK 14,304 125, naphazoline 125, cirazoline 75, agmatine 900 mg/day
# Source text: A person presents with progressive symptoms of intermittent claudication in both legs.
# I2 imidazoline receptors = test: inhibition of 3H-idazoxan (5 nM) binding to rat aortic smooth muscle cell membranes; conditions: 3H-idazoxan 5 nM
# Description: Binding to I2 imidazoline receptors is determined by the following assay. Membranes are prepared from cultured cells for ligand binding as described in Regunathan, S., et al, Biochem. Pharmacol. 45, 1667-1675 (1993) and Regunathan, S., et al, J. Neurosci. Res. 34, 681-688 (1993) and the disclosure in these on this is incorporated herein by reference. In particular, harvested rat aortic smooth muscle cells are homogenized in Hepes-sucrose buffer (pH 7.4) with a Teflon-glass homogenizer and centrifuged at 1000 × g for 10 minutes. The pellets are suspended in ice-cold Tris-HCl buffer (pH 7.7) with 5mM ethylene diamine tetracetic acid and homogenized using a Polytron (Brinkman Instruments) for 10 seconds. The homogenate is centrifuged at 40,000 × g for 30 minutes to produce a membrane pellet. The membrane pellet is washed three times by resuspending in buffer and re-centrifuging. The washed pellet is suspended in fresh Tris-HCl buffer (pH 7.4) to provide approximately 100 μg protein per assay tube. Binding assays are performed in Tris-HCl buffer (pH 7.7) using 5 nM of […]. Non-specific binding is defined by 100 μM of unlabelled idazoxan which will inhibit the specific binding of ^3 H-idazoxan. Thus the binding remaining in the presence 100 μM of idazoxan is due to non-specific binding and this will be substracted from total binding to calculate the specific binding. Following incubation at 25° C. for 30 minutes, reaction is terminated by rapid vacuum filtration over Whatman GF/B filters and washed with 10 ml of ice-cold buffer. Filters are suspended in scintillation fluid and radioactivity counted in a liquid scintillation counter. Membrane protein is assayed by Coomassie Blue method (Pierce) using bovine serum albumin as standard.
# Determination of inhibition constant (Ki) for each drug is determined as follows: The binding of ^3 H-idazoxan to membranes of vascular smooth muscle cells is determined in the presence of 0.1 nM to 100 μM concentrations of potential drug. The percent inhibition of specific binding of ^3 H-idazoxan by each concentration is calculated and plotted against concentration. The data is analyzed by non-linear curve fitting program, LIGAND and the IC50 value for each potential drug is calculated. The affinity for each drug (Ki) for I2 imidazoline receptors is calculated using the formula Ki =IC50 /1+L/Kd where L is the concentration of ^3 H-idazoxan used for binding and Kd is the dissociation constant for ^3 H-idazoxan for I2 imidazoline receptors. The dissociation constant (Kd) is determined by Scatchard analysis of the saturation binding of ^3 H-idazoxan using the formula [formula] where B and F are the amount of bound and free ligand, respectively, and Bmax is the number of binding sites.
# Primary cultures of rat-aortic smooth muscle cells were prepared by a modification (described in Erlinge, Do, et al, Am. J. Physiol. 265, H1089-1097, 1993) of the method of Meyer-Lehnert and Schrier (Meyer-Lehnert, H., et al, Hypertension 13,350-361, 1989), the disclosure of these cited articles being incorporated herein by reference. Briefly, rats were killed by anesthetic overdose and the aorta were removed and incubated with collagenase (2 mg/ml) in Dulbecco's modified Eagle's minimum essential medium (DMEM). The vessel was stripped of adventitia, cut longitudinally and the intima scraped away. After further collagenase treatment, the remaining tissue was passed 20 times through 18 and 16 gauge needles. The resulting cell suspension was centrifuged at 500 × g for 5 minutes and resuspended in DMEM containing penicillin (100 units/ml), streptomycin (100 μg/ml), 2 mM L-glutamine and 10% fetal calf serum. The suspended cells were plated in T-75 flasks, cultured until confluent, and subcultured in 100 mm plates. The confluent cells were harvested and membranes were prepared. Cell viability was determined by trypan blue exclusion.
smiles,measurement,setting,value
"c1ccc2c(c1)OCC(C1=NCCN1)O2 (stereo not shown) [Idazoxan, 2-[2-(1,4-benzodioxanyl)]-2-imidazoline]",symptoms and restenosis of the vessel,[1],Symptoms disappear without evidence of restenosis of the vessel
same,blood pressure,[2]; idazoxan 75 mg/day for 1 month followed by angioplasty with continued treatment,rapid fall of blood pressure to normal
same,re-elevation of pressure / restenosis of the renal artery,"[2]; idazoxan 75 mg/day, UK 14,304 60, naphazoline 125, cirazoline 60, agmatine 900 mg/day","without evidence months later on re-elevation of pressure or on follow up, of restenosis of the renal artery"
same,IC50,[3],55000 nM
same,symptoms of intermittent claudication,[4],stabilization of symptoms
same,Ki,"I2 imidazoline receptors; ""about"", read-out: Ki, inhibition of 3H-idazoxan binding",~10 nM
same,Ki,"I2 imidazoline receptors; Table 2, rat aortic smooth muscle cell membranes, read-out: Ki",8.5 ± 0.35 nM

# Source: US5574059A, “Treating disorders mediated by vascular smooth muscle cell proliferation” (priority 1995, dated 1996)
